Measurements as given in US20150344457A1, “METHODS OF INHIBITING PRMT5” (EPIZYME, INC., priority 2012, published 2015).
Where two headings read alike, the source gives them in different places.

Tests used:
[1] = target: T1, PRMT5/MEP50 (Homo sapiens, UniProt O14744); assay: PRMT5 Biochemical Assay (PRMT5/MEP50 enzyme assay on peptide substrate, 3H-SAM Flashplate); details: read-out: Biochemical IC50
T1 construct: Expressed full-length human Flag-PRMT5/6His-MeP50 protein complex was purified; made in house; host or cells: Spodoptera frugiperda (SF9) insect cells, baculovirus (pDEST8)
T1 sequence (O14744 with tags, fused parts or gaps): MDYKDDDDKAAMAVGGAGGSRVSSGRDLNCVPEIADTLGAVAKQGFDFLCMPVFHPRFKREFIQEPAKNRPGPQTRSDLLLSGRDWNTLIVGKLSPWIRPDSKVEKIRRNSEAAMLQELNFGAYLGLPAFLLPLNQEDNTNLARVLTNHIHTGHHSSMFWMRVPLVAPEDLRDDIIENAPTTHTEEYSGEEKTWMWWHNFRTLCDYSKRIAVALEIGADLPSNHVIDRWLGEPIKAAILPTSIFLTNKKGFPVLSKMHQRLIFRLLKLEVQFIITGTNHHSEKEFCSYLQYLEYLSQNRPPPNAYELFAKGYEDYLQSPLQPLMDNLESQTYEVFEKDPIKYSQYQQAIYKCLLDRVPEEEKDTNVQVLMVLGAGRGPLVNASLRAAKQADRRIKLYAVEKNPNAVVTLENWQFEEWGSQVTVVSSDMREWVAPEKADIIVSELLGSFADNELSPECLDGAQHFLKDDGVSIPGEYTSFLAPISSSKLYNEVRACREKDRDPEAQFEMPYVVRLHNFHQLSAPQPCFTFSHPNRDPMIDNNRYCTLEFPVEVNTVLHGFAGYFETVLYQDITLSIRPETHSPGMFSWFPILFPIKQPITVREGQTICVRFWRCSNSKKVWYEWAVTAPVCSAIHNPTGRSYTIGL
T1 sequence (Q9BQA1 with tags, fused parts or gaps partner limits assumed): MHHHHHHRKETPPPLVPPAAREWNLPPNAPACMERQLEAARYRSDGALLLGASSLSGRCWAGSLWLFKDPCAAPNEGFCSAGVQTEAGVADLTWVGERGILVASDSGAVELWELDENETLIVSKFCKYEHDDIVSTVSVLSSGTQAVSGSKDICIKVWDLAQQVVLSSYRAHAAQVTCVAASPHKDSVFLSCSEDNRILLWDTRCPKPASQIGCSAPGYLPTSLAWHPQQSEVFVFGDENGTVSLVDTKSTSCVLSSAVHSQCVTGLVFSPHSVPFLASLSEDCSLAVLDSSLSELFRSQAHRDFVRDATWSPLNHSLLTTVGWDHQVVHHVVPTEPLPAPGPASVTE

[2] = test system: Z-138 cells; assay: Z-138 Proliferation Assay (Cell Titer Glo, 5 days); format: cell-based; details: Homo sapiens, Table D-2
Excerpt: Z-138 Proliferation Assay
Z-138 suspension cells were purchased from ATCC (American Type Culture Collection, Manassas, Va.). RPMI/Glutamax medium, penicillin-streptomycin, heat inactivated fetal bovine serum were purchased from Life Technologies, Grand Island, N.Y., USA. V-bottom polypropylene 384-well plates were purchased from Greiner Bio-One, Monroe, N.C., USA. Cell culture 384-well white opaque plates were purchased from Perkin Elmer, Waltham, Mass., USA. Cell-Titer Gb® was purchased from Promega Corporation, Madison, Wis., USA. SpectraMax M5 plate reader was purchased from Molecular Devices LLC, Sunnyvale, Calif., USA.
Z-138 suspension cells were maintained in growth medium (RPMI 1640 supplemented with 10% v/v heat inactivated fetal bovine serum and cultured at 37° C. under 5% CO2. Under assay conditions, cells were incubated in assay medium (RPMI 1640 supplemented with 10% v/v heat inactivated fetal bovine serum and 100 units/mL penicillin-streptomycin) at 37° C. under 5% CO2.
For the assessment of the effect of compounds on the proliferation of the Z-138 cell line, exponentially growing cells were plated in 384-well white opaque plates at a density of 10,000 cells/ml in a final volume of 50 μl of assay medium. A compound source plate was prepared by performing triplicate nine-point 3-fold serial dilutions in DMSO, beginning at 10 mM (final top concentration of compound in the assay was 20 μM and the DMSO was 0.2%). A 100 nL aliquot from the compound stock plate was added to its respective well in the cell plate. […] After addition of compounds, assay plates were incubated for 5 days at 37° C., 5% CO2, relative humidity >90%.
Cell viability was measured by quantitation of ATP present in the cell cultures, adding 35 μl of Cell Titer Glo® reagent to the cell plates. Luminescence was read in the SpectraMax M5 microplate reader. The concentration of compound inhibiting cell viability by 50% was determined using a 4-parametric fit of the normalized dose response curves.

| SMILES | IC50 ([1]; Table D-2) [µM] | IC50 ([1]; Table E-2) [µM] | EC50 [2] [µM] |
| --- | --- | --- | --- |
| OC(COc1cccc(CNC2CCCC2)c1)CN1CCc2ccccc2C1 (stereo not drawn) [Compound D1] | 0.101 to 1 |  | 10 to 40 |
| OC(COc1ccc(-n2cncn2)cc1)CN1CCc2ccccc2C1 (stereo not drawn) [Compound D9] | 1 to 10 |  | > 20 |
| OC(COCc1ccc(OCc2ccccc2)cc1)CN1CCc2ccccc2C1 (stereo not drawn) [Compound D12] | 1 to 10 |  | > 20 |
| O=S1(=O)CCN(c2ccc(OCC(O)CN3CCc4ccccc4C3)cc2)CC1 (stereo not drawn) [Compound D18] | 1 to 10 |  | > 20 |
| OC(COC1CCN(Cc2ccccc2)CC1)CN1CCc2ccccc2C1 (stereo not drawn) [Compound D21] | 1 to 10 |  | > 40 |
| O[C@H](COc1cccc(CNC2CCCC2)c1)CN1CCc2ccccc2C1 [Compound D22] |  |  | 10 to 40 |
| O[C@@H](COc1cccc(CNC2CCCC2)c1)CN1CCc2ccccc2C1 [Compound D23] |  |  | 10 to 40 |
| CN(Cc1ccc(OCC(O)CN2CCc3ccccc3C2)cc1)C1CCCC1 (stereo not drawn) [Compound D24] | 1 to 10 |  | > 40 |
| OC(COc1ccc(C2CCNCC2)cc1)CN1CCc2ccccc2C1 (stereo not drawn) [Compound D25] | 1 to 10 |  | 10 to 40 |
| CC(C)n1nccc1-c1ccc(OCC(O)CN2CCc3ccccc3C2)cc1 (stereo not drawn) [Compound D26] | 10 to 40 |  | > 40 |
| CC(C)n1ccc(-c2ccc(OCC(O)CN3CCc4ccccc4C3)cc2)n1 (stereo not drawn) [Compound D27] | 1 to 10 |  | > 40 |
| Cc1cccc2c1CN(CC(O)COc1cccc(-c3ccc4ncn(C)c4c3)c1)CC2 (stereo not drawn) [Compound D192] | 1 to 10 |  |  |
| CCOC(=O)C1c2ccccc2CCN1CC(O)COc1cccc(-c2ccc3ncn(C)c3c2)c1 (stereo not drawn) [Compound D193] | > 40 |  |  |
| OC(COc1cccc(N2CCc3[nH]nc(-c4ccccc4)c3C2)c1)CN1CCc2ccccc2C1 (stereo not drawn) [Compound D194] | 1 to 10 |  |  |
| Cn1cncc1C(=O)Nc1cccc(OCC(O)CN2CCc3ccccc3C2)c1 (stereo not drawn) [Compound D195] | 1 to 10 |  |  |
| CN(C(=O)c1cnco1)c1cccc(OCC(O)CN2CCc3ccccc3C2)c1 (stereo not drawn) [Compound D196] | 1 to 10 |  |  |
| CN(C(=O)c1cn(C)cn1)c1cccc(OCC(O)CN2CCc3ccccc3C2)c1 (stereo not drawn) [Compound D197] | 1 to 10 |  |  |
| CN(C(=O)c1cocn1)c1cccc(OCC(O)CN2CCc3ccccc3C2)c1 (stereo not drawn) [Compound D198] | 10 to 40 |  |  |
| Cn1cnc2ccc(-c3cccc(OCC(O)CN4CCc5ccccc5C4CC(N)=O)c3)cc21 (stereo not drawn) [Compound D202] | > 40 |  |  |
| CN(C(=O)c1cncn1C)c1cccc(OCC(O)CN2CCc3ccccc3C2)c1 (stereo not drawn) [Compound D203] | 1 to 10 |  |  |
| CN(C(=O)c1cccnc1)c1cccc(OCC(O)CN2CCc3ccccc3C2)c1 (stereo not drawn) [Compound D204] | 1 to 10 |  |  |

| SMILES | IC50 ([1]; Table D-2) [µM] | IC50 ([1]; Table E-2) [µM] | EC50 [2] [µM] |
| --- | --- | --- | --- |
| CNC(=O)Cn1ccc2cnc(-c3cccc(OCC(O)CN4CCc5ccccc5C4)c3)nc21 (stereo not drawn) [Compound D206] | 1 to 10 |  |  |
| Cn1cnc2ccc(-c3cccc(OCC(O)CN4CCc5ccccc5C4(C)C)c3)cc21 (stereo not drawn) [Compound D211] | 1 to 10 |  |  |
| Cc1ccc2c(c1)CN(CC(O)COc1cccc(-c3ccc4ncn(C)c4c3)c1)CC2 (stereo not drawn) [Compound D212] | 1 to 10 |  |  |
| Cc1cccc2c1CCN(CC(O)COc1cccc(-c3ccc4ncn(C)c4c3)c1)C2 (stereo not drawn) [Compound D213] | 1 to 10 |  |  |
| Cn1cnc2ccc(-c3cccc(OCC(O)CN4CCc5ccc(Cl)cc5C4)c3)cc21 (stereo not drawn) [Compound D214] | 1 to 10 |  |  |
| Cn1cnc2ccc(-c3cccc(OCC(O)CN4CCc5c(Cl)cccc5C4)c3)cc21 (stereo not drawn) [Compound D215] | 1 to 10 |  |  |
| Cn1cnc2ccc(-c3cccc(OCC(O)CN4CCc5ccccc5C4=O)c3)cc21 (stereo not drawn) [Compound D225] | > 40 |  |  |
| Cn1ccc2ccc(-c3ccnc(NCC(O)CN4CCc5ccccc5C4)c3)cc21 (stereo not drawn) [Compound D227] | < 0.1 |  |  |
| CC(=O)N1CCC(n2cnc3ccc(-c4cccc(OCC(O)CN5CCc6ccccc6C5)c4)cc32)CC1 (stereo not drawn) [Compound D228] | 0.101 to 1 |  |  |
| OC(CNc1cc(-c2ccc3ncn(C4CNC4)c3c2)ccn1)CN1CCc2ccccc2C1 (stereo not drawn) [Compound D229] | < 0.1 |  |  |
| CN1CC(n2cnc3ccc(-c4ccnc(NCC(O)CN5CCc6ccccc6C5)c4)cc32)C1 (stereo not drawn) [Compound D230] | < 0.1 |  |  |
| O=C(Cn1ccc2cnc(-c3cccc(OCC(O)CN4CCc5ccccc5C4)c3)nc21)N1CCCC1 (stereo not drawn) [Compound D231] | 0.101 to 1 |  |  |
| O=C(Cn1ccc2cnc(-c3cccc(OCC(O)CN4CCc5ccccc5C4)c3)nc21)N1CCCCC1 (stereo not drawn) [Compound D232] | 0.101 to 1 |  |  |
| O=C(Nc1ccccn1)c1cccc(OCC(O)CN2CCc3ccccc3C2)c1 (stereo not drawn) [Compound D267] | 0.101 to 1 |  |  |
| O=C(Nc1cccnc1)c1cccc(OCC(O)CN2CCc3ccccc3C2)c1 (stereo not drawn) [Compound D268] | 1 to 10 |  |  |
| O=C(Nc1cc[nH]n1)c1cccc(OCC(O)CN2CCc3ccccc3C2)c1 (stereo not drawn) [Compound D274] | 1 to 10 |  |  |
| Cn1cnc2ccc(-c3cccc(OCC(O)CN4Cc5ccccc5C(F)(F)C4)c3)cc21 (stereo not drawn) [Compound D277] | > 10 |  |  |
| OC(COCc1ccc(Cl)cc1)CN1CCc2ccccc2C1 (stereo not drawn) [Compound D278] | 1 to 10 |  |  |
| COc1c(COCC(O)CN2CCc3ccccc3C2)ccc2ccccc12 (stereo not drawn) [Compound D279] | 1 to 10 |  |  |
| OC(COCc1ccc(Cl)cc1Cl)CN1CCc2ccccc2C1 (stereo not drawn) [Compound D281] | 1 to 10 |  |  |
| OC(COCc1ccccn1)CN1CCc2ccccc2C1 (stereo not drawn) [Compound D282] | 10 to 40 |  |  |

Continued, in another order:

| IC50 ([1]; Table D-2) [µM] | IC50 ([1]; Table E-2) [µM] | SMILES | EC50 [2] [µM] |
| --- | --- | --- | --- |
| 10 to 40 |  | OC(COCc1cccnc1)CN1CCc2ccccc2C1 (stereo not drawn) [Compound D283] |  |
| 10 to 40 |  | OC(COCc1ccncc1)CN1CCc2ccccc2C1 (stereo not drawn) [Compound D284] |  |
| 1 to 10 |  | CC(C)(C)OC(=O)N1CCC(OCC(O)CN2CCc3ccccc3C2)C1 (stereo not drawn) [Compound D287] |  |
| 1 to 10 |  | OC(COC1CCCC1)CN1CCc2ccccc2C1 (stereo not drawn) [Compound D302] |  |
|  | 1 to 10 | Nc1cccc(C(=O)NCC(O)CN2Cc3ccccc3C2)c1 (stereo not drawn) [Compound E2.] |  |
|  | < 0.1 | O=C(COc1cccc2cccnc12)NC[C@H](O)CN1Cc2ccccc2C1 [Compound E4.] |  |
|  | < 0.1 | C[C@@H](Oc1cccc2cccnc12)C(=O)NC[C@H](O)CN1Cc2ccccc2C1 [Compound E5.] |  |
|  | > 10 | C[C@H](Oc1cccc2cccnc12)C(=O)NC[C@@H](O)CN1Cc2ccccc2C1 [Compound E6.] |  |
|  | 0.101 to 1 | O=C(COc1ccccc1-c1cc[nH]n1)NCC(O)CN1Cc2ccccc2C1 (stereo not drawn) [Compound E7.] |  |
|  | 1 to 10 | Cn1cnc2ccc(-c3cccc(OCC(O)CN4Cc5ccccc5C4)c3)cc21 (stereo not drawn) [Compound E9.] |  |
|  | 0.101 to 1 | CC(C)(C)OC(=O)Nc1cccc(C(=O)NCC(O)CN2Cc3ccccc3C2)c1 (stereo not drawn) [Compound E11.] |  |
|  | 0.101 to 1 | CS(=O)(=O)c1ccccc1OCC(=O)NCC(O)CN1Cc2ccccc2C1 (stereo not drawn) [Compound E12.] |  |
|  | 0.101 to 1 | O=C(NCC(O)CN1Cc2ccccc2C1)c1cccc(-c2ccccn2)c1 (stereo not drawn) [Compound E13.] |  |
|  | < 0.1 | CN(C)S(=O)(=O)c1ccccc1OCC(=O)NCC(O)CN1Cc2ccccc2C1 (stereo not drawn) [Compound E15.] |  |
|  | 1 to 10 | O=C(COc1cccc2cccnc12)NC[C@@H](O)CN1Cc2ccccc2C1 [Compound E16.] |  |
|  | 1 to 10 | COc1ccc(Cn2cnc3ccc(-c4ccc(OCC(O)CN5Cc6ccccc6C5)cc4)cc32)cc1 (stereo not drawn) [Compound E18.] |  |
|  | 0.101 to 1 | O=C(COc1cccc2cccnc12)NCC(O)CN1Cc2ccccc2C1 (stereo not drawn) [Compound E19.] |  |
|  | 1 to 10 | OC(COc1cccc(CNC2CCCC2)c1)CN1Cc2ccccc2C1 (stereo not drawn) [Compound E20.] |  |
